According to patent US9872847B2 (priority 2013, dated 2018):

What was measured:
[1] = tested on: Harmaline-induced tremor; assay: animal or person; format: in vivo, male Sprague-Dawley rats; details: po; for inhibition in vivo at 130 mg/kg / ED50 / inhibition in vivo at 100 mg/kg: Rattus norvegicus; for inhibition in vivo at 130 mg/kg / inhibition in vivo at 100 mg/kg: 0.5 h, read-out: Protection % (percentage of activity compared to the vehicle only); for On-set time Mean ± S.E.M. / On-set time Median / Tremor score Mean ± S.E.M. / Tremor score Median: rat, in vivo
[2] = tested on: motor abilities on the Rotarod; assay: Neurotoxicity (Rotarod); format: in vivo; details: protective index, mice
Method: The measurement of neurotoxicity of the test compounds was conducted by the method of Dunham and Miya [Dunham, N. W. and Miya, T. S. 1957. A note on a simple apparatus for detecting neurological deficit in rats and mice. J. Am. Pharm. Assoc. (Baltimore) 46: 208˜209]. In the method, motor abilities of the test animals can be determined by observing whether the test animals can walk without falling from a rotator, thereby determining the value of neurotoxicity of each compound. […] They were pre-trained on the rotarod (Rotarod; Columbus instrument, rota-max, USA) at 6 rpm for 5 min 24 hr prior to the test. The peak time was determined by administration test material's random dose for 0.5, 1, 2, 4 hour. […] The ratio of TD50 to ED50 (TD50/ED50) is called as a protective index, and useful as a parameter for comparison of pharmaceutical efficacy and neurotoxicity.

[3] = tested on: MES (electrical stimulus) seizure; assay: animal or person; format: in vivo, male ICR mice; details: for Protection % (percentage of activity compared to the vehicle only): mouse, in vivo

## C[C@H](OC(N)=O)[C@@H](O)c1ccc(Cl)cc1Cl [Compound 36, 1-(2,4-dichlorophenyl)-(S)-1-hydroxypropyl-(S)-2-carbamate]
[1]
  inhibition in vivo at 130 mg/kg: 83.3%

## C[C@H](OC(N)=O)[C@@H](O)c1ccccc1I [Compound 65, 1-(2-iodophenyl)-(S)-1-hydroxypropyl-(S)-2-carbamate]
[1]
  ED50: 19.2 mg/kg

## C[C@H](OC(N)=O)[C@H](O)c1ccccc1Cl [Compound 5, 1-(2-chlorophenyl)-(R)-1-hydroxypropyl-(S)-2-carbamate]
[2]
  PI(TD50/ED50 in MES): 3.3

## CC(OC(N)=O)C(O)c1ccccc1Cl (racemic) [Compound 3, 1-(2-chlorophenyl)-1-hydroxypropyl-2-carbamate]
[1]
  inhibition in vivo at 130 mg/kg: 75%
[2]
  PI(TD50/ED50 in MES): 12.0

## C[C@@H](OC(N)=O)[C@H](O)c1ccccc1Cl [Compound 2, 1-(2-chlorophenyl)-(R)-1-hydroxypropyl-(R)-2-carbamate]
[1]
  inhibition in vivo at 130 mg/kg: 66.7%
[2]
  PI(TD50/ED50 in MES): 7.3

## CC[C@H](OC(N)=O)[C@@H](O)c1ccccc1I [Compound 67, 1-(2-iodophenyl)-(S)-1-hydroxybutyl-(S)-2-carbamate]
[1]
  inhibition in vivo at 100 mg/kg: 83.3%

## CCCNC(=O)O[C@H](C)[C@H](O)c1ccccc1Cl (racemic) [Compound 30, 1-(2-chlorophenyl)-1-hydroxypropyl-2-propylcarbamate]
[3]
  Protection % (percentage of activity compared to the vehicle only): 200 ^a(25%)

## C[C@@H](OC(N)=O)[C@H](O)c1c(Cl)cccc1Cl [Compound 46, 1-(2,6-dichlorophenyl)-(R)-1-hydroxypropyl-(R)-2-carbamate]
[1]
  inhibition in vivo at 100 mg/kg: 58.3%

## CC[C@H](OC(N)=O)[C@@H](O)c1ccc(Cl)cc1Cl [Compound 39, 1-(2,4-dichlorophenyl)-(S)-1-hydroxybutyl-(S)-2-carbamate]
[1]
  inhibition in vivo at 130 mg/kg: 66.7%

## CC[C@H](OC(N)=O)[C@@H](O)c1ccccc1Cl [Compound 6, 1-(2-chlorophenyl)-(S)-1-hydroxybutyl-(S)-2-carbamate]
[1]
  inhibition in vivo at 130 mg/kg: 75%

## C[C@H](OC(=O)NC1CC1)[C@@H](O)c1ccccc1Cl [Compound 25, 1-(2-chlorophenyl)-(R)-1-hydroxypropyl-(R)-2-N-cyclopropylcarbamate]
[3]; Mus musculus, po, read-out: Protection % (percentage of activity compared to the vehicle only)
  responders at 200 mg/kg: 25%

## CCCNC(=O)O[C@@H](C)[C@@H](O)c1ccccc1Cl [Compound 16, 1-(2-chlorophenyl)-(S)-1-hydroxypropyl-(S)-2-N-propylcarbamate]
[3]
  Protection % (percentage of activity compared to the vehicle only): 200 ^a(25%)

## CC(C)[C@H](OC(N)=O)[C@@H](O)c1c(Cl)cccc1Cl [Compound 42, 1-(2,6-dichlorophenyl)-(S)-1-hydroxy-3-methyl-butyl-(S)-2-carbamate]
[1]
  inhibition in vivo at 100 mg/kg: 71.7%

## C[C@@H](OC(N)=O)[C@@H](O)c1ccccc1Cl [Compound 4, 1-(2-chlorophenyl)-(S)-1-hydroxypropyl-(R)-2-carbamate]
[1]
  inhibition in vivo at 100 mg/kg: 66.7%

## C[C@H](OC(N)=O)[C@@H](O)c1cccc(Cl)c1Cl [Compound 38, 1-(2,3-dichlorophenyl)-(S)-1-hydroxypropyl-(S)-2-carbamate]
[1]
  inhibition in vivo at 100 mg/kg: 55%

## C[C@H](OC(N)=O)[C@@H](O)c1ccccc1Cl [Compound 1, 1-(2-chlorophenyl)-(S)-1-hydroxypropyl-(S)-2-carbamate]
[1]
  ED50: 12.9 mg/kg
[1]; 5 mg/kg
  On-set time Mean ± S.E.M.: 243 ± 7 s
  On-set time Median: 250 s
  Tremor score Mean ± S.E.M.: 4.8 ± 0.5
  Tremor score Median: 5.0
[1]; 10 mg/kg
  On-set time Mean ± S.E.M.: 289 ± 19 s
  On-set time Median: 265 s
  Tremor score Mean ± S.E.M.: 3.6 ± 0.6
  Tremor score Median: 2.5
[1]; 20 mg/kg
  On-set time Mean ± S.E.M.: 367 ± 21 s
  On-set time Median: 375 s
  Tremor score Mean ± S.E.M.: 1.8 ± 0.1
  Tremor score Median: 1.8

## CC(C)[C@H](OC(N)=O)[C@@H](O)c1ccccc1Cl [Compound 9, 1-(2-chlorophenyl)-(S)-1-hydroxy-3-methyl-butyl-(S)-2-carbamate]
[1]
  inhibition in vivo at 130 mg/kg: 58.3%

## C[C@H](OC(N)=O)[C@@H](O)c1ccccc1F [Compound 63, 1-(2-fluorophenyl)-(S)-1-hydroxypropyl-(S)-2-carbamate]
[1]
  inhibition in vivo at 100 mg/kg: 83.3%

## C[C@H](OC(N)=O)[C@@H](O)c1c(Cl)cccc1Cl [Compound 37, 1-(2,6-dichlorophenyl)-(S)-1-hydroxypropyl-(S)-2-carbamate]
[1]
  inhibition in vivo at 130 mg/kg: 91.7%
[2]
  PI(TD50/ED50 in MES): 5.1
